{"source": "ChEMBL document CHEMBL2074068", "about": "“Flavonoid permeability across an in situ model of the blood-brain barrier” (Free Radic Biol Med, 2004)", "key": {"[1]": {"target": "T1, ATP-dependent translocase ABCB1 (Homo sapiens, UniProt P08183)", "T1 sequence (P08183 whole entry)": "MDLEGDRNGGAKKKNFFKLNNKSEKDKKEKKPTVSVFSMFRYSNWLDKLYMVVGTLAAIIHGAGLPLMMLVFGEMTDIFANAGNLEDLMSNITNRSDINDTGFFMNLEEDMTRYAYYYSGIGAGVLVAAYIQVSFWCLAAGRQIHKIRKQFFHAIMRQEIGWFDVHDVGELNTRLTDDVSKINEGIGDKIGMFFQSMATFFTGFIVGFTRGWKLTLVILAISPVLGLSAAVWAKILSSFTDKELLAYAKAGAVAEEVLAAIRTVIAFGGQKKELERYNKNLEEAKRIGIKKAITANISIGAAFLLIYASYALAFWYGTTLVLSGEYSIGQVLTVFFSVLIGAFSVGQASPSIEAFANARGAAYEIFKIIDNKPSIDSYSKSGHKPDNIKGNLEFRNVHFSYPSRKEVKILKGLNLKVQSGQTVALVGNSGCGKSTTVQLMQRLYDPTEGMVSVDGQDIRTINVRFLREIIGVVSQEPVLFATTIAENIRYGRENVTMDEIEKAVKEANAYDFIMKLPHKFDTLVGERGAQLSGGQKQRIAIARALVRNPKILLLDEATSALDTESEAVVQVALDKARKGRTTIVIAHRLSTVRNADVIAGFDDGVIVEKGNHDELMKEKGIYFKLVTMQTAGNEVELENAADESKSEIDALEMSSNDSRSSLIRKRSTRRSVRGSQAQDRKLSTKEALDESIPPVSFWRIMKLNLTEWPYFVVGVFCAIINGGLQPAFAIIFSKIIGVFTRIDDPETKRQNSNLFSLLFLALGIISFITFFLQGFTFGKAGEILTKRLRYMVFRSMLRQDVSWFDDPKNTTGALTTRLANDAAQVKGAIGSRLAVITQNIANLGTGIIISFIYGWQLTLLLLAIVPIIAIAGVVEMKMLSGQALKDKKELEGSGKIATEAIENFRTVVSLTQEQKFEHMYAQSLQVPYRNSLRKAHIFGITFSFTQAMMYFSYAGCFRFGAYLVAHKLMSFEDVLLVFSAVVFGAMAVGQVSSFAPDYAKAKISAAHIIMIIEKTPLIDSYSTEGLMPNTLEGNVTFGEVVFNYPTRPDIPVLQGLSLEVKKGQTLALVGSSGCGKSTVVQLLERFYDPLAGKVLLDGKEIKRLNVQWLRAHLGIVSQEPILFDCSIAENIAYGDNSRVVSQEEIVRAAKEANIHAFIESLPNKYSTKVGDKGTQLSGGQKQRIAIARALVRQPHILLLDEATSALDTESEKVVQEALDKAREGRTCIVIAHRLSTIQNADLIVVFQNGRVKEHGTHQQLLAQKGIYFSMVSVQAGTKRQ", "experiment": "TP_TRANSPORTER: cell accumulation of colchicine in the presence of Naringenin at a concentration of 100uM in MDR1-expressing MDCK cells", "format": "functional, cell-based", "conditions": "dog"}, "[2]": {"target": "T1, ATP-dependent translocase ABCB1", "experiment": "TP_TRANSPORTER: cell accumulation in MDR1-expressing MDCK cells", "format": "functional, cell-based", "conditions": "dog"}}}
{"smiles": "O=C1C[C@@H](c2ccc(O)cc2)Oc2cc(O)cc(O)c21", "note": "[NARINGENIN]", "values": [{"measurement": "Activity", "setting": "[1]", "result": "inhibitor [+]"}, {"measurement": "Activity", "setting": "[2]", "result": "substrate [+]"}]}
